Results from patent publication US10766863B2, “Monocarboxylate transport modulators and uses thereof” (NIROGYONE THERAPEUTICS, INC., priority 2014, dated 2020).

What was measured:
Assay type in all cases: cell-based
[1] = test system: monocarboxylate transporters; experiment: Lactate uptake by 14C-lactate labeling assay; settings: SiHa cells, compound one hour, 2 μM 14C-lactate for 12 minutes; read-out: Lactate Consumption (%)/[IC50][14C labeled]
Method: Measuring Lactate Uptake by ^14 C-lactate Labeling Assay.
The inhibition of monocarboxylate transporters of the invention was determined using ^14CLactate, and the data are shown in Table II. Cells are maintained in their appropriate growth medium (DMEM medium with 4.5 g/L glucose, 4 mM L-glutamine supplemented with 10% FBS and P/S (growth medium). Cell culture surface of 24-well cell culture plates (BD Bioscience) were aseptically coated with 80 μL poly-lysine (1 mg/mL, Sigma) for 5 mins, then rinsed with sterile cell culture grade water, air-dried for at least 2 hours before introducing cells and medium. SiHa cells were seeded in poly-lysine coated 24-well plate at 500,000 cells/well in growth medium for 6 hours. Replace the growth medium with 1 mL lactate medium (10 mM lactate in base DMEM without sodium pyruvate) for overnight. Cells were rinsed with modified Kreb solution (containing 10 μM L-lactate, without glucose) and then treated with vehicle or increasing concentrations of compounds (0.1, 1, 10, 100 μM) at 37° C. in 1 mL modified Kreb solution (containing 10 μM L-lactate, 0.25% BSA) for one hour. […] After one hour agitation, the radioactivity was measured using Microbeta TriLux. CPM value was recorded and normalized to protein concentration.

[2] = test system: panel of solid and haemotological tumor cell lines; experiment: MTS or MTT cell proliferation assay (cytotoxicity of MCT inhibition); settings: Homo sapiens; MTS or MTT readout, 72 hours post-dosing; growth medium or 10 mM lactate medium (SiHa); cell line not given
Method: MTS or MTT Cell Proliferation Assay
The anti-proliferation effect of MCT inhibition was investigated across a panel of solid and haemotological tumor cell lines. Cells were routinely cultured in their appropriate growth medium. On day 1, between 5,000 -10,000 cells/well were plated into 96-well plates. 100 μL of phosphate buffered saline solution was added to the external wells to prevent media evaporation. Plates were incubated overnight at 37° C. in the presence of 5% CO2. On day 2, dry weight compound stocks were dissolved to a concentration of 20 mM in 100% DMSO. Compounds were further diluted in either growth medium or 10 mM lactate medium (For SiHa cell lines; Basic DMEM, 10% FBS, 10 mM Na-Lactate, 2.2 g/L NaHCO3, no glutamine) to generate a final dose range of 10 nM to 100 μM. Plates were then incubated at 37° C. in the presence of 5% CO2 for a further 72 hours post-dosing. On day 5, 20 μL of CellTiter 96 AQ MTS reagent or MTT was added to each well and the plate was returned to the incubator for 2-4 hours. In case of lactate medium, the medium was replaced by 100 μL of growth medium and 20 μL of CellTiter 96 AQ MTS reagent or replaced the media in cells with 100 uL of growth media containing 10% MTT solution,. MTS or MTT is bioreduced by NADPH or NADH produced by dehydrogenase enzymes in metabolically active cells into a coloured formazan product that is soluble in tissue culture medium. The amount of coloured formazan product is directly proportional to the number of living cells in culture. In the case of MTT, after 4 hr incubation, the media was removed from the plates and the plate was air-dried. Then, 100 uL of DMSO was added to each well, and incubated for 30 mins at room temperature with mild shaking. The absorbance of the plates was read on a Synergy H4 plate reader using […] or 540 nm measurement wavelength. Dose response curves were plotted and IC50 values were calculated using Prism. The IC50 value is equivalent to the concentration of compound that causes 50% inhibition of growth calculated from the compound treated signal to the vehicle treated signal.

[3] = test system: monocarboxylate transporters; experiment: Lactate consumption assay in tumor cell lines (enzymatic L-Lactate Kit II); settings: tumor cells in 10 mM lactate medium, compound 24 hours; concentration not given
Method: Lactate Consumption Assay in Tumor Cell Lines.
Cells are maintained in their appropriate growth medium (DMEM medium with 4.5 g/L glucose, 4 mM L-glutamine supplemented with 10% FBS and P/S (growth medium). Cells (500,000 cells/well) were seeded in 24-well plate in growth medium for 6 hours. Replace the growth medium with 1 mL lactate medium (10 mM lactate in base DMEM without sodium pyruvate) for overnight. Cells were treated with compounds in 1 mL lactate medium for 24 hours. The culture medium was collected and centrifuged at 12,000 rpm for 5 minutes at 4° C. to get rid of any cell debris. An aliquot of 0.5 mL of the supernatant was loaded to a deproteinizing column, centrifuged at 12,000 rpm for 15 minutes at 4° C. The flow-through was collected and stored at -80° C. for future analysis. The amount of lactate in the supernatant was analyzed by enzymatic L-Lactate Kit II (Eton Bioscience Inc.). Briefly, 50 μL of 10 times diluted sample was mixed with 50 μL reaction mixture. Lactic acid is oxidized by enzyme reactions to yield color product, which can be measured in dual modes, either at 570 nm for colorimetric assay or with Ex 530-560/Em 570-595 nm fluorescence assay. And the color or fluorescence intensity is proportional to lactic acid concentrations, therefore the sample lactic acid concentration can be accurately calculated based on the lactic acid standards. […]

Row | IC50 [1] [nM] | Lactate Consumption [Lactate Kit] (%)/[IC50] [3] [%] | Structure (SMILES) | EC50 [2] [nM]
1 | < 1000 | 86 | CC(C)Cn1cc(C(=O)O)c(=O)c2cc(F)c(N(C)Cc3ccccc3)cc21 [Example 1, 7-(benzyl(methyl)amino)-6-fluoro-1-isobutyl-4-oxo-1,4-dihydroquinoline-3-carboxylic acid] | < 1000
2 |  |  | CC(C)Cn1cc(C(=O)O)c(=O)c2cc(F)c(N(C)Cc3cccc(C(F)(F)F)c3)cc21 [Example 3, 6-fluoro-1-isobutyl-7-(methyl(3-(trifluoro-methyl)benzyl)amino)-4-oxo-1,4-dihydroquinoline-3-carboxylic acid] | < 1000
3 |  |  | CC(C)Cn1cc(C(=O)O)c(=O)c2cc(F)c(N(C)Cc3ccc(Cl)cc3)cc21 [Example 4, 7-((4-chlorobenzyl) (methyl)amino)-6-fluoro-1-isobutyl-4-oxo-1,4-dihydro-quinoline-3-carboxylic acid] | < 1000
4 |  |  | CC(C)Cn1cc(C(=O)O)c(=O)c2cc(F)c(NCc3cccc(C(F)(F)F)c3)cc21 [Example 5, 6-fluoro-1-isobutyl-4-oxo-7-((3-(trifluoro-methyl)benzyl)amino)-1,4-dihydroquinoline-3-carboxylic acid] | < 1000
5 |  |  | CCn1cc(C(=O)O)c(=O)c2cc(F)c(N(C)Cc3ccccc3)cc21 [Example 6, 7-(benzyl(methyl)amino)-1-ethyl-6-fluoro-4-oxo-1,4-dihydroquinoline-3-carboxylic acid] | < 1000
6 |  |  | CC(C)Cn1cc(C(=O)O)c(=O)c2cc(F)c(N(C)Cc3cccc(F)c3)cc21 [Example 7, 6-fluoro-7-((3-fluorobenzyl)(methyl)amino)-1-isobutyl-4-oxo-1,4-dihydro-quinoline-3-carboxylic acid] | < 1000
7 |  |  | COc1cccc(CN(C)c2cc3c(cc2F)c(=O)c(C(=O)O)cn3CC(C)C)c1 [Example 8, 6-fluoro-1-isobutyl-7-((3-methoxybenzyl) (methyl)amino)-4-oxo-1,4-dihydroquinoline-3-carboxylic acid] | < 1000
8 |  |  | CC(C)Cn1cc(C(=O)O)c(=O)c2cc(F)c(N(C)CC3CCN(C)CC3)cc21 [Example 9, 6-fluoro-1-isobutyl-7-(methyl((1-methyl-piperidin-4-yl)methyl)amino)-4-oxo-1,4-dihydroquinoline-3-carboxylic acid] | < 1000
9 |  |  | CC(C)Cn1cc(C(=O)O)c(=O)c2cc(F)c(N(C)Cc3cccs3)cc21 [Example 10, 6-fluoro-1-isobutyl-7-(methyl(thiophen-2-ylmethyl)amino)-4-oxo-1,4-dihydro-quinoline-3-carboxylic acid] | < 1000
10 |  |  | CC(C)Cn1cc(C(=O)O)c(=O)c2cc(F)c(N(C)C(=O)c3ccccc3)cc21 [Example 11, 6-fluoro-1-isobutyl-7-(N-methylbenzamido)-4-oxo-1,4-dihydro-quinoline-3-carboxylic acid] | < 1000
11 |  |  | COc1cccc(CN(C)c2cc3c(cc2F)c(=O)c(C(=O)O)cn3Cc2ccccc2)c1 [Example 12, 1-benzy1-6-fluoro-7-((3-methoxybenzyl) (methyl)amino)-4-oxo-1,4-dihydroquinoline-3-carboxylic acid] | < 1000
12 |  |  | Cc1cc(C)n(Cc2cc3c(cc2C(=O)N2CCC2)c(=O)c(C(=O)O)cn3CC(C)C)n1 [Example 15, 6-(azetidine-1-carbonyl)-7-((3,5-dimethyl-1H-pyrazol-1-yl)methyl)-1-isobutyl-4-oxo-1,4-dihydroquinoline-3-carboxylic acid] | < 1000
13 |  |  | CC(C)n1cc(C(=O)O)c(=O)c2cc(F)c(N(C)Cc3cccnc3)cc21 [Example 16, 6-fluoro-1-isopropyl-7-(methyl(pyridin-3-ylmethyl)amino)-4-oxo-1,4-dihydro-quinoline-3-carboxylic acid] | < 1000
14 |  |  | CC(C)n1cc(C(=O)O)c(=O)c2cc(F)c(N(C)Cc3ccccc3)cc21 [Example 17, 7-(benzyl(methyl)amino)-6-fluoro-1-isopropyl-4-oxo-1,4-dihydro-quinoline-3-carboxylic acid] | < 1000
15 |  |  | CC(C)n1cc(C(=O)O)c(=O)c2cc(F)c(N(C)Cc3ccc(F)cc3)cc21 [Example 18, 6-fluoro-7-((4-fluorobenzyl)(methyl)amino)-1-isopropyl-4-oxo-1,4-dihydro-quinoline-3-carboxylic acid] | < 1000
